The source made the active and inactive calls. The calls are words filed in the database; no cut-off is given here.
Experiments:
RAW264.7 [1] = assay: Antiinflammatory activity in mouse RAW264.7 cells assessed as inhibition of LPS-induced NO production at 20 uM incubated for 24 hrs relative to control; type: functional
[2] = Cytotoxicity against mouse RAW264.7 cells assessed as cell viability at 20 uM incubated for 24 hrs by CCK8 assay relative to control; type: toxicity, cell-based; conditions: read-out: Activity
RAW264.7 [3] = assay: Antiinflammatory activity in mouse RAW264.7 cells assessed as inhibition of LPS-induced NO production incubated for 24 hrs; type: functional, cell-based; conditions: RAW264.7, 24 h
Mus musculus [4] = assay: Antiinflammatory activity against DSS-induced ulcerative colitis C57BL/6J mouse model assessed as reduction in Ccl2 mRNA expression level in colon at 15 mg/kg, po administered for 8 days by qRT-PCR analysis; type: functional, organism-based; conditions: time 8.0 day
Mus musculus [5] = assay: Antiinflammatory activity against DSS-induced ulcerative colitis C57BL/6J mouse model assessed as reduction in H and E histopathological score at 15 mg/kg, po administered for 8 days by H and E staining based analysis; type: functional, organism-based; conditions: time 8.0 day
Mus musculus [6] = assay: Antiinflammatory activity against DSS-induced ulcerative colitis C57BL/6J mouse model assessed as increase in OCCLUDIN protein level in colon at 15 mg/kg, po administered for 8 days by Western blot analysis; type: functional, organism-based; conditions: time 8.0 day
RAW264.7 [7] = assay: Antiinflammatory activity in LPS-induced mouse RAW264.7 cells assessed as reduction in TNF-alpha mRNA expression level at 20 uM by qRT-PCR analysis; type: functional, cell-based
RAW264.7 [8] = assay: Antiinflammatory activity in LPS-induced mouse RAW264.7 cells assessed as inhibition of IL-6 production at 20 uM by ELISA; type: functional, cell-based
Mus musculus [9] = assay: Antiinflammatory activity against DSS-induced ulcerative colitis C57BL/6J mouse model assessed as reduction in inflammatory cell infiltration in colon at 15 mg/kg, po administered for 8 days by Hand E staining based histopathological analysis; type: functional, organism-based; conditions: time 8.0 day
Mus musculus [10] = assay: Antiinflammatory activity against DSS-induced ulcerative colitis C57BL/6J mouse model assessed as reduction in iNOS mRNA expression level in colon at 15 mg/kg, po administered for 8 days by qRT-PCR analysis; type: functional, organism-based; conditions: time 8.0 day
Mus musculus [11] = assay: Antiinflammatory activity against DSS-induced ulcerative colitis C57BL/6J mouse model assessed as reduction in IL-1beta mRNA expression level in colon at 15 mg/kg, po administered for 8 days by qRT-PCR analysis; type: functional, organism-based; conditions: time 8.0 day
Mus musculus [12] = assay: Antiinflammatory activity against DSS-induced ulcerative colitis C57BL/6J mouse model assessed as increase in CLAUDIN-1 protein level in colon at 15 mg/kg, po administered for 8 days by Western blot analysis; type: functional, organism-based; conditions: time 8.0 day
RAW264.7 [13] = assay: Antiinflammatory activity in LPS-induced mouse RAW264.7 cells assessed as reduction in iNOS mRNA expression level at 20 uM by qRT-PCR analysis; type: functional, cell-based
Mus musculus [14] = assay: Effect on DSS-induced body weight loss in ulcerative colitis male C57BL/6J mouse model at 15 mg/kg, po administered for 8 days; type: functional, organism-based; conditions: time 8.0 day
RAW264.7 [15] = assay: Antiinflammatory activity in LPS-induced mouse RAW264.7 cells assessed as inhibition of TNF-alpha production at 20 uM by ELISA; type: functional, cell-based
[16] = target: Transcription factor p65 (Mus musculus) (UniProt Q04207); assay: Inhibition of p65 activation in LPS-induced mouse RAW264.7 cells at 20 uM by Western blot analysis; type: cell-based
Transcription factor p65 (Mus musculus), sequence (Q04207 whole entry): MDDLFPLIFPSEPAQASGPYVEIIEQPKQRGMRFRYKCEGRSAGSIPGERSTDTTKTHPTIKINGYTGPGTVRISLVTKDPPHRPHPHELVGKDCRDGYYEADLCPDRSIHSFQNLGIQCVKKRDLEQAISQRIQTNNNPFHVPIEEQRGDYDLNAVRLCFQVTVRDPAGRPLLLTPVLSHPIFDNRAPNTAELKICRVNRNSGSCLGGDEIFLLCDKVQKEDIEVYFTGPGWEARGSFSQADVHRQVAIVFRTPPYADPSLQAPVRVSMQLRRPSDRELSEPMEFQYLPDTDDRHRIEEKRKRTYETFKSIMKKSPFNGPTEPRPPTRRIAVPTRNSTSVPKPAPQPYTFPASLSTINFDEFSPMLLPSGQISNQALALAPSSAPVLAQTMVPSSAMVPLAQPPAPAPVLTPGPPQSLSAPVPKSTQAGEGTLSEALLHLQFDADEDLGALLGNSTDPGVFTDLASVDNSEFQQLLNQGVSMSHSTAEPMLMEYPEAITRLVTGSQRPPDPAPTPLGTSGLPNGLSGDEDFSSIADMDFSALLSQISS

RAW264.7 [17] = assay: Antiinflammatory activity in LPS-induced mouse RAW264.7 cells assessed as reduction in IL-1beta mRNA expression level at 20 uM by qRT-PCR analysis; type: functional, cell-based
Mus musculus [18] = assay: Antiinflammatory activity against DSS-induced ulcerative colitis C57BL/6J mouse model assessed as reduction in DAI score at 15 mg/kg, po administered for 8 days; type: functional, organism-based; conditions: time 8.0 day
[19] = target: c-Jun N-terminal kinase (Mus musculus) (UniProt Q91Y86+Q9WTU6+Q61831); assay: Inhibition of JNK phosphorylation in LPS-induced mouse RAW264.7 cells at 20 uM by Western blot analysis; type: cell-based
c-Jun N-terminal kinase (Mus musculus), sequence (Q61831 whole entry, looked up): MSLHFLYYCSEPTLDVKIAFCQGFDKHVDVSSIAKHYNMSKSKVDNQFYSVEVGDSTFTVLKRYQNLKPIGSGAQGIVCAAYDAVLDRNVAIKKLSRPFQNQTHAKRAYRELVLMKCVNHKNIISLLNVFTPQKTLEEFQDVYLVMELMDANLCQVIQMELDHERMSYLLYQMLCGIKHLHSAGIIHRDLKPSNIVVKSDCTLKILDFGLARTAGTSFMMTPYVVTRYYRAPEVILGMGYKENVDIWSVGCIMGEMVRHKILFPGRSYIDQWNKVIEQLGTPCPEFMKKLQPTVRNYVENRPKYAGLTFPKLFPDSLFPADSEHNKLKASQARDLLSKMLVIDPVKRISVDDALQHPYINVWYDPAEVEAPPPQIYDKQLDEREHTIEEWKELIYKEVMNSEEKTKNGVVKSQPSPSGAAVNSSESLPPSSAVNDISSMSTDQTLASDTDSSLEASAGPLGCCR
c-Jun N-terminal kinase (Mus musculus), sequence (Q91Y86 whole entry, looked up): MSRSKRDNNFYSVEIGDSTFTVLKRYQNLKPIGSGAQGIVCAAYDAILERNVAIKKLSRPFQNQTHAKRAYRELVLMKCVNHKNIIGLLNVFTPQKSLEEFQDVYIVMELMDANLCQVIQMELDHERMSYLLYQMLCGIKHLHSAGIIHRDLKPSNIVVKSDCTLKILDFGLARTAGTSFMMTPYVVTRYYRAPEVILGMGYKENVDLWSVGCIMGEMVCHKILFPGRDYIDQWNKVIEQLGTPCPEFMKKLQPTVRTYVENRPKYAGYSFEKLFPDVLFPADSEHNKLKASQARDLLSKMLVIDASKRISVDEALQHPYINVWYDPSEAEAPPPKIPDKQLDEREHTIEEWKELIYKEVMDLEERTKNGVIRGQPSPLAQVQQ
c-Jun N-terminal kinase (Mus musculus), sequence (Q9WTU6 whole entry, looked up): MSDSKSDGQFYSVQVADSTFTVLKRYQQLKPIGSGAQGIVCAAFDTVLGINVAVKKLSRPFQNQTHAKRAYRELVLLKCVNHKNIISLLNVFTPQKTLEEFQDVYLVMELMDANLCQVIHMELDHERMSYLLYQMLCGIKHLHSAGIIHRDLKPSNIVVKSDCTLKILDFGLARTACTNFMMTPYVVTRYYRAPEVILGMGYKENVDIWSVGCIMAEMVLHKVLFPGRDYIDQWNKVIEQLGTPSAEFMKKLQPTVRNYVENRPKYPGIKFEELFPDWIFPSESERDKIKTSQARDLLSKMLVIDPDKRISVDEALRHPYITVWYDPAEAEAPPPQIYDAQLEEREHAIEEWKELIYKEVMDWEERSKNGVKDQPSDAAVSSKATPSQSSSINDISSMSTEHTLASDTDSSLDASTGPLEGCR

RAW264.7 [20] = assay: Antiinflammatory activity in LPS-induced mouse RAW264.7 cells assessed as reduction in IL-6 mRNA expression level at 20 uM by qRT-PCR analysis; type: functional, cell-based
Mus musculus [21] = assay: Antiinflammatory activity against DSS-induced ulcerative colitis C57BL/6J mouse model assessed as reduction in goblet cell loss in colon at 15 mg/kg, po administered for 8 days by alcian blue staining based analysis; type: functional, organism-based; conditions: time 8.0 day
Mus musculus [22] = assay: Antiinflammatory activity against DSS-induced ulcerative colitis C57BL/6J mouse model assessed as reduction in TNF-alpha mRNA expression level in colon at 15 mg/kg, po administered for 8 days by qRT-PCR analysis; type: functional, organism-based; conditions: time 8.0 day
RAW264.7 [23] = assay: Inhibition of ERK phosphorylation in LPS-induced mouse RAW264.7 cells at 20 uM by Western blot analysis; type: cell-based
RAW264.7 [24] = assay: Inhibition of P38 phosphorylation in LPS-induced mouse RAW264.7 cells at 20 uM by Western blot analysis; type: cell-based
Mus musculus [25] = assay: Antiinflammatory activity against DSS-induced ulcerative colitis C57BL/6J mouse model assessed as reduction in intestinal epithelial destruction in colon at 15 mg/kg, po administered for 8 days by Hand E staining based histopathological analysis; type: functional, organism-based; conditions: time 8.0 day
RAW264.7 [26] = assay: Inhibition of NF-kappaB transcriptional activity in LPS-induced mouse RAW264.7 cells at 20 uM by luciferase based assay; type: cell-based
Mus musculus [27] = assay: Antiinflammatory activity against DSS-induced ulcerative colitis C57BL/6J mouse model assessed as increase in […] protein level in colon at 15 mg/kg, po administered for 8 days by Western blot analysis; type: functional, organism-based; conditions: time 8.0 day

For `C=C1C(=O)O[C@]2(C)CC[C@@H]1C[C@@H]1O[C@@]1(C)C/C=C/[C@@](C)(O)CC[C@H]2OC(C)=O`, the inhibition at 20 µM (RAW264.7 [1]) was 99.5%, the viability at 24 h, 20 µM [2] was 87.9% and the IC50 (RAW264.7 [3]) was 10100 nM.

Work on `C=C1C(=O)O[C@]2(C)CC[C@@H]1C[C@H](OC(C)=O)[C@@]1(C)CC[C@H](O1)[C@](C)(O)CC[C@H]2O` yielded an inhibition at 20 µM (RAW264.7 [1]) of 25.8% and a viability at 24 h, 20 µM [2] of 109%.

For `C=C1C(=O)O[C@]2(C)CC[C@@H]1C[C@@H]1O[C@@]1(C)CC/C=C(\C)CC[C@H]2OC(C)=O`, the Activity (Mus musculus [4]) was “Active”, the Activity (Mus musculus [5]) was “Active” and the Activity (Mus musculus [6]) was “Active”. The Activity (RAW264.7 [7]) was “Active”, the Activity (RAW264.7 [8]) was “Active” and the Activity (Mus musculus [9]) was “Active”. For the same molecule, the inhibition at 20 µM (RAW264.7 [1]) was 139%, the Activity (Mus musculus [10]) was “Active” and the Activity (Mus musculus [11]) was “Active”. For the same molecule, the Activity (Mus musculus [12]) was “Active”, the Activity (RAW264.7 [13]) was “Active” and the viability at 24 h, 20 µM [2] was 89%. The Activity (Mus musculus [14]) was “inactive”, the Activity (RAW264.7 [15]) was “Active” and the inhibition [16] was “Active”. The Activity (RAW264.7 [17]) was “Active”, the Activity (Mus musculus [18]) was “Active” and the inhibition [19] was “Active”. The Activity (RAW264.7 [20]) was “Active”, the Activity (Mus musculus [21]) was “Active” and the IC50 (RAW264.7 [3]) was 1150 nM. The Activity (Mus musculus [22]) was “Active”, the inhibition (RAW264.7 [23]) was “Active” and the inhibition (RAW264.7 [24]) was “inactive”. The Activity (Mus musculus [25]) was “Active”, the inhibition (RAW264.7 [26]) was “Active” and the Activity (Mus musculus [27]) was “Active”.

Work on `C=C(C(=O)OC)[C@@H]1CC[C@]2(C)O[C@H]2CC[C@](C)(OO)/C=C/C[C@]2(C)O[C@@H]2C1` yielded an inhibition at 20 µM (RAW264.7 [1]) of 35.4% and a viability at 24 h, 20 µM [2] of 87.4%.

`C=C1C(=O)O[C@]2(C)CC[C@@H]1C[C@H](O)[C@@]1(C)CC[C@H](O1)C(=C)CC[C@H]2OC(C)=O` [GRANOSOLIDE A] showed an inhibition at 20 µM (RAW264.7 [1]) of 31% and a viability at 24 h, 20 µM [2] of 88.7%.

With `C=C1C(=O)O[C@]2(C)CC[C@@H]1C[C@@H]1O[C@@]1(C)CC[C@H](O)[C@](C)(O)CCC2=O` the Activity (RAW264.7 [7]) was “Active”, the inhibition at 20 µM (RAW264.7 [1]) was 90% and the Activity (RAW264.7 [13]) was “Active”. The viability at 24 h, 20 µM [2] was 89%, the Activity (RAW264.7 [17]) was “Active” and the Activity (RAW264.7 [20]) was “Active”. It also gave an IC50 (RAW264.7 [3]) of 1980 nM.

Work on `C=C1C(=O)O[C@]2(C)CC[C@@H]1C[C@@H]1O[C@@]1(C)C/C=C/[C@@](C)(OO)CCC2=O` yielded an inhibition at 20 µM (RAW264.7 [1]) of 48.7% and a viability at 24 h, 20 µM [2] of 93.7%.

With `C=C1C(=O)O[C@]2(C)CC[C@@H]1C[C@@H]1O[C@@]1(C)CC[C@H](OC(C)=O)[C@@]1(C)CC[C@@H]2O1` the inhibition at 20 µM (RAW264.7 [1]) was 36.7% and the viability at 24 h, 20 µM [2] was 103%.

`C=C1C(=O)O[C@]2(C)CC[C@@H]1C[C@H](O)[C@@]1(C)CC[C@H](O1)C(=C)CC[C@H]2O` gave an inhibition at 20 µM (RAW264.7 [1]) of 39% and a viability at 24 h, 20 µM [2] of 89%.

For `C=C1C(=O)O[C@]2(C)CC[C@@H]1C[C@H](O)[C@@]1(C)CC/C=C(/CCC2=O)COO1`, the inhibition at 20 µM (RAW264.7 [1]) was 34.4% and the viability at 24 h, 20 µM [2] was 94.5%.

Molecule `C=C1C(=O)O[C@]2(C)CC[C@@H]1C[C@@H]1O[C@@]1(C)CC/C=C(\C)CC[C@H]2O` has an inhibition at 20 µM (RAW264.7 [1]) of 86.7%, a viability at 24 h, 20 µM [2] of 92.8% and an IC50 (RAW264.7 [3]) of 13100 nM.

`C=C(C(=O)OC)[C@@H]1CC[C@@](C)(O)[C@@H](OC(C)=O)CC/C(C)=C/C/C=C(\C)[C@H](O)C1` showed an inhibition at 20 µM (RAW264.7 [1]) of 55.7% and a viability at 24 h, 20 µM [2] of 89.2%.

With `C=C1C(=O)O[C@]2(C)CC[C@@H]1C[C@H]1O[C@@]1(C)C/C=C/[C@](C)(OO)CC[C@H]2O` the Activity (RAW264.7 [7]) was “Active”, the inhibition at 20 µM (RAW264.7 [1]) was 124% and the Activity (RAW264.7 [13]) was “Active”. The viability at 24 h, 20 µM [2] was 108%, the Activity (RAW264.7 [17]) was “Active” and the Activity (RAW264.7 [20]) was “Active”. It also gave an IC50 (RAW264.7 [3]) of 840 nM.

With `C=C1C(=O)O[C@]2(C)CC[C@@H]1C[C@H](O)[C@@]1(C)CC[C@H](O1)C(=C)CCC2=O` the inhibition at 20 µM (RAW264.7 [1]) was 34% and the viability at 24 h, 20 µM [2] was 89.5%.

Molecule `C=C(C(=O)OC)[C@@H]1CC[C@@](C)(O)[C@@H](OC(C)=O)CC/C(C)=C/CC[C@]2(C)O[C@H]2C1` has an inhibition at 20 µM (RAW264.7 [1]) of -4.67% and a viability at 24 h, 20 µM [2] of 104%.
